As a reminder, the melting point is the temperature, or range, at which the solid turns liquid.

`CN(C(=O)/C=C/CSc1nc(N)cc(Cl)n1)c1ccccc1` registered a melting point of 152 to 154 °C.
Consider `Cc1cccnc1C(=O)c1[nH]c2cc(Cl)ccc2c1CC(=O)O`, for which the melting point was in the range of 195 to 196 °C.
In the case of `O=C(O)CC1Cc2ccccc2NC1=O` (stereo not given), the melting point fell in the range of 145 to 146 °C.
`CCc1cc(OCCCN(C)Cc2ccc(OC)c(OC)c2)ccc1NC(=O)c1cccc2c(=O)c3cccc(F)c3[nH]c12` yielded a melting point of 146 °C.
In the case of `CNC(=O)Nc1ccc(Cl)c(Cl)c1` it was 156 °C; in that of `C[C@@H](Nc1ncnc2[nH]c(-c3ccc(CCl)cc3)cc12)c1ccccc1`, above 320 °C.
In the case of `Cc1ccnc(Cl)c1C(N)=O` it was 168 to 170 °C.
`CCOC(=O)/C=C/c1cn(-c2ccc(C(F)(F)F)cn2)nc1C(C)CC` (stereo not given) returned a melting point of 75 to 76 °C.
In the case of `CC(C)(C#N)c1ccc(C(=O)Nc2cn3cc(-n4ccnc4)ccc3n2)cc1` it was 241 to 244 °C.
In the case of `CCOC(=O)c1ccc(C(=O)CC(O)(c2cc(Cl)cc(Cl)c2)C(F)(F)F)cc1C` (stereo not given) it was 72 to 74 °C; in that of `COC(=O)c1cc(C)cc(C(C)(C)C#N)c1`, 53.8 to 55.9 °C; in that of `CCCSC1(SCCC)CCC2C3CCC4=CC(=O)C=CC4(C)C3(F)C(O)CC21C` (stereo not given), 235 to 237 °C.
In the case of `O=C(O)c1cc(-c2ccc3c(c2)CCO3)nn(CC=Cc2ccc(Cl)cc2)c1=O` it was 177 to 181 °C; in that of `CCCOc1ccc(S(C)(=O)=O)cc1C(=O)Nc1c(CC)n[nH]c1C(N)=O`, 209 to 210 °C.
For the molecule `CCN(CC)C(=O)Nc1ccc(S(=O)(=O)n2c(=O)n(C3CCCCCC3)c3cc(Cl)ccc32)c(OC)c1`, the melting point came to 218 °C.
In the case of `CCCCCC(CC(=O)Nc1cc(CCC(N)=O)ccc1C(C)(C)C)c1ccc(OC)cc1OC` (stereo not given) it was 113 to 114 °C; in that of `COc1ccc(N2C(=O)[C@@H](CCCc3ccccc3)[C@@H]2c2ccc(N3CCN(Cc4ccccc4)CC3)cc2)cc1` (relative stereo), 139 to 140 °C; in that of `O=[N+]([O-])c1cccc(S(=O)(=O)NC(CO)(CO)CO)c1`, 98 to 99 °C.
On to `COc1cc(OC)nc(-n2nc(C)oc2=O)n1`, for which the melting point was 158 °C.
Take `CCCCCCCCn1nnc(C(C(=O)Nc2c(OC)cc(OC)cc2OC)c2ccccc2)n1` (stereo not given): the melting point was 113 to 116 °C.
`CSc1ccc2c3c(cccc13)C(=O)N2CCCC#N`: the melting point fell in the range of 120 to 122 °C.
In the case of `COC(=O)c1ccccc1C=CC(=O)N1CCc2c([nH]c3ccccc23)C1c1ccc2c(c1)OCO2` (stereo not given) it was 203 to 204 °C.
`C=CC(=O)Oc1cccc(-c2ccc3cc(OC(=O)C=C)ccc3c2)c1` yielded a melting point of 75.4 °C.
In the case of `CC1(C)C=Cc2c(ccc3c2C(=O)C(Br)=C(O)C3=O)O1` it was 202 to 205 °C; in that of `CCN(C=O)Cc1ccc(NCCN(CC)CC)c2c(=O)c3ccccc3sc12`, 75 to 77 °C.
In the case of `CC(C)(C)c1cc(N(C(=O)Cc2ccccc2C(=O)O)c2ccccc2)cc(C(C)(C)C)c1O` it was 170 to 175 °C.
In the case of `CCCCCCCNC(=O)N(C)c1cccc(-c2ccc(CCC(=O)O)cc2)n1` it was 108 °C.
`CCC(CC)(CCS(N)(=O)=O)COc1nn2ncnc2cc1C` returned a melting point of 148 to 149 °C.
In the case of `O=C(O)CCCC(c1ccccc1)c1ccccc1` it was 87 to 90 °C; in that of `O=C(O)c1ccc2c(=O)[nH]c(=O)n(CCCCN3CCC(OC(c4ccccc4)c4ccccc4)CC3)c2c1`, 177 to 179 °C.
In the case of `Cc1ccc(N(C)S(=O)(=O)c2cccs2)c2[nH]c(-c3nccs3)cc12` it was 159 to 160 °C; in that of `CC(=O)N1CCN(C(C)c2ccc(-c3ccc(Cl)cc3)cc2)CC1` (stereo not given), 120 to 121 °C.
As for `Cn1c(CCNC(=O)C(F)(F)F)cc2cccc(F)c21`, the melting point was 108 to 110 °C.
`C=C(c1ccc(I)cc1)C(O)(Cn1cncn1)c1ccccc1F` (stereo not given) registered a melting point of 117 to 118 °C.
In the case of `Cc1cc(-c2ccccc2)n2nc(N)nc2n1` it was 246 to 250 °C; in that of `COCc1nc2nccnc2c(=O)n1C`, 130 to 132 °C; in that of `O=C(Nc1ccc(Oc2cncc(Cl)c2)nc1)c1ccccc1C(c1ccc(O)cc1)c1ccc(O)cc1`, 122 to 125 °C.
Regarding `CNC1CCCN(C(=O)c2ccc(NC(=O)c3ccccc3C)s2)c2ccc(Cl)cc21` (stereo not given), the melting point was 213 to 216 °C.
In the case of `Cc1ccc(C2CC(C(F)(F)F)=NN2c2ccc(S(N)(=O)=O)cc2)cc1` (stereo not given) it was 140 to 143 °C; in that of `O=C1c2cc(OCc3ccccc3)ccc2OCC1Cn1ccnc1` (stereo not given), 108 to 110 °C.
`C=CCN1CCC23c4c5ccc(O)c4OC2C(=NO)CCC3(O)C1C5` (stereo not given) returned a melting point of 119 °C.
In the case of `CCOCc1nc2c(N)nc3cc(-c4cccnc4)ccc3c2n1Cc1ccc(CN)cc1` it was 211 to 214 °C.
In the case of `C=CCCNS(=O)(=O)CC(=O)C1=C(C)NC(C)=C(C(=O)OC(C)C)C1c1cccc([N+](=O)[O-])c1` (stereo not given) it was 137 to 140 °C.
On to `COc1ccc2c3c(ccc2c1)-c1ccccc1C3c1ccc(OCCN2CCCCC2)cc1` (stereo not given), for which the melting point was in the range of 130 to 133 °C.
In the case of `O=c1c2cn(Cc3ccccc3F)c3ccccc3c-2nn1-c1ccc(Cl)cc1`, the melting point lay in the range of 338 to 339 °C.
Regarding `CSc1ccc(N2CCc3ccccc32)c([N+](=O)[O-])c1`, the melting point fell in the range of 67 to 69 °C.
In the case of `CC1CC(=Cc2cc(C(C)(C)C)c(O)c(C(C)(C)C)c2)C(=O)N1C(N)=O` (stereo not given) it was 195 to 196 °C; in that of `O=C(O)c1ccc(N2Cc3ccccc3C2=O)cc1`, above 295 °C.
Take `CCOC(C)O[C@@H](C(=O)OC(=O)[C@H](OC(C)OCC)[C@@H](NC(=O)OC(C)(C)C)c1ccccc1)[C@@H](NC(=O)OC(C)(C)C)c1ccccc1` (stereo not given in full): the melting point was found to be 43 °C.
In the case of `CCn1cc(CN(C(=O)C2CCCc3ccc(OCc4ccccc4)cc32)c2ccc(C(C)C)cc2)cn1` (stereo not given) it was 100 to 101 °C; in that of `CC(CS)C(=O)N1CC(Oc2ccc(CC3Nc4cc(Cl)c(S(N)(=O)=O)cc4S(=O)(=O)N3C)cc2)CC1C(=O)O` (stereo not given), 192 to 197 °C; in that of `O=C(O)Cc1ccc2c(c1)CCC(c1ccccc1F)N2` (stereo not given), 117 to 118 °C.
In the case of `COc1ccc2ccc(C(=O)CNC(=O)Cc3ccccc3)cc2c1` it was 148 to 150 °C.
`O=c1[nH]c2cc(Cl)ccc2n1CCCN1CCC(O)(c2ccc(Cl)cc2)CC1` came in with a melting point of 191 °C.
`COC(=O)C1CN(C(=O)COc2ccccc2)c2ccccc2CN1S(=O)(=O)c1ccc(OC)cc1` (stereo not given) had a melting point of 151 to 153 °C.
On to `CC(=O)C1C(=O)CC(C#N)CC1=O` (stereo not given), for which the melting point fell in the range of 66 to 69 °C.
In the case of `O=C(NCCNCCNC(=O)OCc1ccccc1)OCc1ccccc1` it was 73 to 75 °C.
`CC(C)(C)CC(NC(=O)c1ccc(Br)cc1)NC(=NS(=O)(=O)C(F)(F)F)Nc1cccnc1` (stereo not given) registered a melting point of 185 to 186 °C.
In the case of `O=C1Nc2ccccc2C(=O)N2CCCC12` (stereo not given) it was 174 °C.
In the case of `COCC1COc2cc3ncnc(Nc4cccc(Cl)c4)c3cc2O1` (stereo not given) it was 277 to 282 °C; in that of `COc1cc(C=CC(=O)N2CCN(c3nc(N)c4cc(OC)c(OC)cc4n3)CC2)cc(OC)c1`, 132 to 135 °C; in that of `CC(=O)N1CCNC1=NC(c1ccccc1)c1ccccc1`, 234 to 236 °C.
Consider `O=C1CC(C(F)(F)F)CC(=O)N1c1cc(OS(=O)(=O)c2ccccc2)c(Cl)cc1F`, for which the melting point fell in the range of 214 to 215 °C.
In the case of `Cc1oc(-c2ccc(OCC(F)(F)F)cc2)nc1COc1ccc(CN(O)C(N)=O)cc1` it was 159 to 161 °C; in that of `CNC(=O)Nc1ccc2c(c1)C(=O)C1(CC1)O2`, 196 to 204 °C; in that of `O=C(NCCO)c1cccc(-c2ccc3c(c2)C(Oc2cccc(C(F)(F)F)c2)CC3)c1` (stereo not given), 157 to 158 °C.
In the case of `CC1=CC(O)C(OC(=O)c2ccc([N+](=O)[O-])cc2)C(C)(C)CC1=O` (stereo not given) it was 148 to 150 °C; in that of `NC(N)C(=O)c1ccccc1`, 104 to 107 °C; in that of `CCOC(=O)c1cc2cccc(OCC(O)CCl)c2o1` (stereo not given), 95 to 97 °C.
On to `Cn1ccc(=O)c2ccc(F)cc21`, for which the melting point fell in the range of 146 to 149 °C.
In the case of `O=C1c2nc3ccccn3c2C(=O)c2cccc(F)c21` it was above 260 °C; in that of `CCc1cccc(CNC[C@@H](O)[C@H](Cc2cc(F)cc(F)c2)NC(=O)N2CCC(CS(C)(=O)=O)CC2)c1`, 130 to 134 °C.
In the case of `CCc1c(Cc2[nH]c(C(=O)OCc3ccccc3)c(C)c2CCCO)[nH]c(Cc2[nH]c(C(=O)OCc3ccccc3)c(C)c2CCCO)c1CC` it was 172 to 173 °C.
In the case of `N#CC1(c2nnn[nH]2)CCCC1` it was 92 to 94 °C; in that of `CC(=O)Nc1cc(Cl)c([N+](=O)[O-])cc1CCOC(C)=O`, 153 °C.
On to `COc1ccc(COc2cc3c(cc2-c2cc(C=CC(=O)O)ccc2OC)C(C)(C)CCC3(C)C)cc1`, for which the melting point lay within 201 to 203 °C.
In the case of `OCCCCN1CCC(C(O)(c2ccc(F)cc2)c2ccc(F)cc2)CC1` it was 130 to 131 °C.
In the case of `Clc1cccnc1-c1cc(OCCc2ccccn2)c2[nH]nc(Br)c2c1` it was above 250 °C.
Molecule `CN(C)CCC(CCO)c1ccncc1` (stereo not given) came in with a melting point of 26 °C.
`COc1ccc(CC(OC)C(=O)O)cc1NC(=O)Cc1ccc(C(F)(F)F)cc1` (stereo not given) came in with a melting point of 124 to 125 °C.
Regarding `CC(C)(C)OC(=O)/C(=C/c1ccc2ccccc2c1)C(=O)c1ccccc1O`, the melting point fell in the range of 111 to 112 °C.
In the case of `C[C@@H]1NC(=O)c2cccc(N)c2NC1=O`, the melting point worked out at 320 °C.
Molecule `CC(=O)Oc1cccc(-c2noc(C)n2)c1` returned a melting point of 94 °C.
The molecule `CCC(=O)c1ncc(Nc2cc(C)[nH]n2)nc1Nc1ccc(F)cc1` yielded a melting point of 208 to 210 °C.
In the case of `CN(C)C1=NS(=O)(=O)N=C1N[C@@H]1c2cc(OC(F)(F)F)ccc2OC(C)(C)[C@H]1O` it was 135 to 140 °C.

These data come from a melting point compilation (Tetko et al.; mined from patent text by program, amines drawn as free bases though some values may be those of a salt).
